According to publication PMC7345905, “Microbial Metabolite Urolithin B Inhibits Recombinant Human Monoamine Oxidase A Enzyme” (Metabolites, 2020):
“And” between values parts separate entries of the source, which are not always exact repeats. Equal values may be shown once.

How the values were obtained:
human recombinant MAO-A [1] = molecular target: T1, human recombinant MAO-A (Homo sapiens, UniProt P21397); assay: MAO-Glo MAO-A inhibition assay; assay type: biochemical; settings: for MAO-A enzyme assay, Percent of control: N=1-3, listed as UroB
T1 construct: purchased Sigma-Aldrich
T1 sequence (P21397 1-527): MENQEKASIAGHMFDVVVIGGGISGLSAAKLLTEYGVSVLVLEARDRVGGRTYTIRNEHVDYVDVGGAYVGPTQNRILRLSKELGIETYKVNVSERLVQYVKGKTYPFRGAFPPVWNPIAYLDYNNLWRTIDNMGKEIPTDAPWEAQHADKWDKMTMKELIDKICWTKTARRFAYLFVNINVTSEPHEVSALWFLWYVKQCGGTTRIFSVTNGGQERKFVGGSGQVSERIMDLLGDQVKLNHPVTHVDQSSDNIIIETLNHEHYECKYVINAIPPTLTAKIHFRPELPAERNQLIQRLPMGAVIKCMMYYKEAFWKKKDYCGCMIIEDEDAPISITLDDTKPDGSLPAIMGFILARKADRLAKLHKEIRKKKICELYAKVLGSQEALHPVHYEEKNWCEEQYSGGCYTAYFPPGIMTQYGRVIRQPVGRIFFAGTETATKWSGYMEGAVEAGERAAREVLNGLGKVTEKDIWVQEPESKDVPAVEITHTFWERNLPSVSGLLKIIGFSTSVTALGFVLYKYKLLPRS
Experimental: (§1) MAO inhibition assays were performed using a MAO-Glo™ Assay kit (Promega) according to the manufacturer’s instructions. Briefly, 1 µg of human recombinant MAO-A and MAO-B enzyme isoforms were incubated with 160 and 16 µM of MAO substrates, respectively. […] The enzyme reaction was quenched by the addition of a luciferin detection reagent. […] An equal volume of dimethyl sulfoxide (0.1%) was added to the enzyme assay as a control. After 1 h of incubation, the luminescence was measured with a multimode microplate reader (Synergy HT, BioTek, Winooski, VT, USA) to determine the MAO enzyme activities. Initially, the inhibition potential of all the test compounds was evaluated at a concentration of 100 μM. The control reaction (with no inhibitor) with vehicle (DMSO 0.1%) was set at 100% activity. To determine IC50 of the test compounds, the dose dependent enzyme assays were performed. We used range of 0.1 to 50 μM concentrations for MAO-A and 0.1 to 200 μM concentrations of test compounds for the MAO-B enzyme activities. The type of enzyme inhibition was determined using variable concentrations of MAO-A substrate (10–360 µM) and MAO-B substrate (2–64 µM) for the respective enzyme assay. […] A Lineweaver–Burk double reciprocal plot was generated, and the mode of inhibition was determined by visual examination of the plot. The slope of the reciprocal plots was plotted against the inhibitor concentrations and determined the x-axis intercept that represented the inhibitor constant, Ki value.

human recombinant MAO-A [2] = molecular target: T1, human recombinant MAO-A; assay: MAO-A inhibition kinetics (variable substrate, Lineweaver–Burk plot); assay type: biochemical; parameters: Michaelis-Menten best-fit Vmax of MAO-A / Michaelis-Menten best-fit Vmax of MAO-A, Average: unit not given here; settings: for MAO-A assay signal (luminescence) / Transformed (reciprocal of MAO-A assay signal) / Michaelis-Menten best-fit Vmax of MAO-A: N=1-3
Experimental: as §1
All experiments were performed in triplicates and data are presented as mean ± standard error of the mean (SEM). The raw data are provided in Supplementary Data, Table S1. Enzyme kinetic data were analyzed using the Lineweaver–Burk plot. Statistical analysis was performed by Student’s t-test using GraphPad Prism Ver. 7.0 (GraphPad Prism Software Inc., San Diego, CA, USA).

[3] = UroB 0.4 µM, MAO-A substrate 10 uM
[4] = UroB 0.4 µM, MAO-A substrate 20 uM
[5] = UroB 0.4 µM, MAO-A substrate 40 uM
[6] = UroB 0.4 µM, MAO-A substrate 80 uM
[7] = UroB 0.4 µM, MAO-A substrate 160 uM
[8] = UroB 0.4 µM, MAO-A substrate 320 uM
[9] = UroB 2 µM, MAO-A substrate 10 uM
[10] = UroB 2 µM, MAO-A substrate 20 uM
[11] = UroB 2 µM, MAO-A substrate 40 uM
[12] = UroB 2 µM, MAO-A substrate 80 uM
[13] = UroB 2 µM, MAO-A substrate 160 uM
[14] = UroB 2 µM, MAO-A substrate 320 uM

**Q.** Which results are given for `O=c1oc2cc(O)ccc2c2ccccc12` [UB, urolithin-B]?
**A.** IC50 (human recombinant MAO-A [1]; 0–50 μM range, 160 µM substrate, 37 °C, 1 h, read-out: IC50 for MAO-A inhibitory activity): 880 nM; MAO-A enzyme assay, Percent of control (human recombinant MAO-A [1]; 0.1 µM): 101.662% of control and 98.0675% of control and 93.5275% of control; MAO-A enzyme assay, Percent of control (human recombinant MAO-A [1]; 0.5 µM): 64.4524% of control and 74.8902% of control and 80.9217% of control; MAO-A enzyme assay, Percent of control (human recombinant MAO-A [1]; 1 µM): 51.8207% of control and 51.0498% of control and 41.9972% of control; MAO-A enzyme assay, Percent of control (human recombinant MAO-A [1]; 5 µM): 37.9544% of control and 37.4055% of control and 33.2487% of control; MAO-A enzyme assay, Percent of control (human recombinant MAO-A [1]; 10 µM): 21.8683% of control and 19.2684% of control and 22.2499% of control; MAO-A enzyme assay, Percent of control (human recombinant MAO-A [1]; 25 µM): 10.1321% of control and 11.7696% of control and 12.9039% of control; MAO-A enzyme assay, Percent of control (human recombinant MAO-A [1]; 50 µM): 6.787% of control and 6.156% of control and 5.227% of control; MAO-A enzyme assay, Percent of control (human recombinant MAO-A [1]; 100 µM (Figure 1A), 100 µM): 5.573% of control and 6.858% of control and 6.006% of control; inhibition of MAO-A enzyme activity (human recombinant MAO-A [1]; 100 µM, compared to vehicle): 94%; mode of inhibition of MAO-A (human recombinant MAO-A [2]; Lineweaver–Burk plot): mixed mode of inhibition; MAO-A assay signal (luminescence), Average (human recombinant MAO-A [2]; [3]): 1545; MAO-A assay signal (luminescence) (human recombinant MAO-A [2]; [3]): 1603 and 1392 and 1640; MAO-A assay signal (luminescence), Average (human recombinant MAO-A [2]; [4]): 2811.33; MAO-A assay signal (luminescence) (human recombinant MAO-A [2]; [4]): 2815 and 2835 and 2784; MAO-A assay signal (luminescence), Average (human recombinant MAO-A [2]; [5]): 5085; MAO-A assay signal (luminescence) (human recombinant MAO-A [2]; [5]): 5099 and 4835 and 5321; MAO-A assay signal (luminescence), Average (human recombinant MAO-A [2]; [6]): 9642.33; MAO-A assay signal (luminescence) (human recombinant MAO-A [2]; [6]): 9741 and 9698 and 9488; MAO-A assay signal (luminescence), Average (human recombinant MAO-A [2]; [7]): 17162.3; MAO-A assay signal (luminescence) (human recombinant MAO-A [2]; [7]): 17107 and 16984 and 17396; MAO-A assay signal (luminescence), Average (human recombinant MAO-A [2]; [8]): 26885; MAO-A assay signal (luminescence) (human recombinant MAO-A [2]; [8]): 27251 and 26905 and 26499; Transformed (reciprocal of MAO-A assay signal), Average (human recombinant MAO-A [2]; UroB 0.4 µM, [1/S] 0.003125): 3.72e-5; Transformed (reciprocal of MAO-A assay signal) (human recombinant MAO-A [2]; UroB 0.4 µM, [1/S] 0.003125): 3.67e-5 and 3.717e-5 and 3.774e-5; Transformed (reciprocal of MAO-A assay signal), Average (human recombinant MAO-A [2]; UroB 0.4 µM, [1/S] 0.00625): 5.827e-5; Transformed (reciprocal of MAO-A assay signal) (human recombinant MAO-A [2]; UroB 0.4 µM, [1/S] 0.00625): 5.846e-5 and 5.888e-5 and 5.748e-5; Transformed (reciprocal of MAO-A assay signal), Average (human recombinant MAO-A [2]; UroB 0.4 µM, [1/S] 0.0125): 0.0001037; Transformed (reciprocal of MAO-A assay signal) (human recombinant MAO-A [2]; UroB 0.4 µM, [1/S] 0.0125): 0.0001027 and 0.0001031 and 0.0001054; Transformed (reciprocal of MAO-A assay signal), Average (human recombinant MAO-A [2]; UroB 0.4 µM, [1/S] 0.025): 0.0001967; Transformed (reciprocal of MAO-A assay signal) (human recombinant MAO-A [2]; UroB 0.4 µM, [1/S] 0.025): 0.0001961 and 0.0002068 and 0.0001879; Transformed (reciprocal of MAO-A assay signal), Average (human recombinant MAO-A [2]; UroB 0.4 µM, [1/S] 0.05): 0.0003557; Transformed (reciprocal of MAO-A assay signal) (human recombinant MAO-A [2]; UroB 0.4 µM, [1/S] 0.05): 0.0003552 and 0.0003527 and 0.0003592; Transformed (reciprocal of MAO-A assay signal), Average (human recombinant MAO-A [2]; UroB 0.4 µM, [1/S] 0.1): 0.0006472; Transformed (reciprocal of MAO-A assay signal) (human recombinant MAO-A [2]; UroB 0.4 µM, [1/S] 0.1): 0.0006238 and 0.0007184 and 0.0006098; MAO-A assay signal (luminescence), Average (human recombinant MAO-A [2]; [9]): 917; MAO-A assay signal (luminescence) (human recombinant MAO-A [2]; [9]): 965 and 892 and 894; MAO-A assay signal (luminescence), Average (human recombinant MAO-A [2]; [10]): 1607; MAO-A assay signal (luminescence) (human recombinant MAO-A [2]; [10]): 1578 and 1604 and 1639; MAO-A assay signal (luminescence), Average (human recombinant MAO-A [2]; [11]): 2957.33; MAO-A assay signal (luminescence) (human recombinant MAO-A [2]; [11]): 3058 and 2874 and 2940; MAO-A assay signal (luminescence), Average (human recombinant MAO-A [2]; [12]): 5505.33; MAO-A assay signal (luminescence) (human recombinant MAO-A [2]; [12]): 5631 and 5490 and 5395; MAO-A assay signal (luminescence), Average (human recombinant MAO-A [2]; [13]): 10332.7; MAO-A assay signal (luminescence) (human recombinant MAO-A [2]; [13]): 10318 and 10224 and 10456; MAO-A assay signal (luminescence), Average (human recombinant MAO-A [2]; [14]): 17850.7; MAO-A assay signal (luminescence) (human recombinant MAO-A [2]; [14]): 18126 and 17343 and 18083; Transformed (reciprocal of MAO-A assay signal), Average (human recombinant MAO-A [2]; UroB 2 µM, [1/S] 0.003125): 5.602e-5; Transformed (reciprocal of MAO-A assay signal) (human recombinant MAO-A [2]; UroB 2 µM, [1/S] 0.003125): 5.517e-5 and 5.766e-5 and 5.53e-5; Transformed (reciprocal of MAO-A assay signal), Average (human recombinant MAO-A [2]; UroB 2 µM, [1/S] 0.00625): 9.678e-5; Transformed (reciprocal of MAO-A assay signal) (human recombinant MAO-A [2]; UroB 2 µM, [1/S] 0.00625): 9.6918e-5 and 9.781e-5 and 9.564e-5; Transformed (reciprocal of MAO-A assay signal), Average (human recombinant MAO-A [2]; UroB 2 µM, [1/S] 0.0125): 0.0001816; Transformed (reciprocal of MAO-A assay signal) (human recombinant MAO-A [2]; UroB 2 µM, [1/S] 0.0125): 0.0001776 and 0.0001821 and 0.0001854; Transformed (reciprocal of MAO-A assay signal), Average (human recombinant MAO-A [2]; UroB 2 µM, [1/S] 0.025): 0.0003381; Transformed (reciprocal of MAO-A assay signal) (human recombinant MAO-A [2]; UroB 2 µM, [1/S] 0.025): 0.000327 and 0.0003479 and 0.0003401; Transformed (reciprocal of MAO-A assay signal), Average (human recombinant MAO-A [2]; UroB 2 µM, [1/S] 0.05): 0.0006223; Transformed (reciprocal of MAO-A assay signal) (human recombinant MAO-A [2]; UroB 2 µM, [1/S] 0.05): 0.0006337 and 0.0006234 and 0.0006101; Transformed (reciprocal of MAO-A assay signal), Average (human recombinant MAO-A [2]; UroB 2 µM, [1/S] 0.1): 0.001091; Transformed (reciprocal of MAO-A assay signal) (human recombinant MAO-A [2]; UroB 2 µM, [1/S] 0.1): 0.001036 and 0.001121 and 0.001119; Michaelis-Menten best-fit Vmax of MAO-A, Average (human recombinant MAO-A [2]; in presence of UroB 0.4 uM): 65357.3; Michaelis-Menten best-fit Vmax of MAO-A (human recombinant MAO-A [2]; in presence of UroB 0.4 uM): 61114 and 67822 and 67136; Michaelis-Menten best-fit Vmax of MAO-A, Average (human recombinant MAO-A [2]; in presence of UroB 2 uM): 66008.7; Michaelis-Menten best-fit Vmax of MAO-A (human recombinant MAO-A [2]; in presence of UroB 2 uM): 58741 and 70969 and 68316; Ki (human recombinant MAO-A [2]; x-axis intercept of slopes of Lineweaver–Burk plots vs inhibitor concentration): 2300 nM
